Earlier results as cited in US8226980B2, “Orally disintegrating solid dosage forms comprising progestin and methods of making and using thereof” (Teva Women's Health, Inc., priority 2006, dated 2012).
Read-outs that look alike come from different tables or passages of the source.

Conditions: for Dose roughly equivalent to 0.050 mg of levonorgestrel: in a contraceptive regimen

SMILES: C#C[C@]1(O)CCC2C3CCC4=CC(=O)CCC4C3CCC21CC (stereo partly drawn) [Levonorgestrel, 18,19-Dinorpregn-4-en-20-yn-3-one-13-ethyl-17-hydroxy-, (17α)-(−)-]
- Norethindrone Equivalent* Dose (progestin Dose 0.10 mg): 0.35 mg
- Norethindrone Equivalent* Dose (progestin Dose 0.15 mg): 0.52 mg

SMILES: C#C[C@]1(O)CC[C@H]2[C@@H]3CCC4=CC(=O)CC[C@@H]4[C@H]3CC[C@@]21C [Norethindrone]
- Norethindrone Equivalent* Dose (progestin Dose 1.00 mg): 1.00 mg
- Norethindrone Equivalent* Dose (progestin Dose 2.00 mg): 2.00 mg
- Norethindrone Equivalent* Dose (progestin Dose 10.00 mg): 10.00 mg

SMILES: C#C[C@]1(O)CC[C@H]2[C@@H]3CCC4=CCCC[C@@H]4[C@H]3C(=C)C[C@@]21CC [desogestrel]
- Dose roughly equivalent to 0.050 mg of levonorgestrel: about 0.050 mg

SMILES: C#C[C@]1(O)CC[C@H]2[C@@H]3CCC4=CC(=O)CC[C@@H]4[C@H]3C(=C)C[C@@]21CC [3-ketodesogestrel]
- Dose roughly equivalent to 0.050 mg of levonorgestrel: about 0.050 mg

SMILES: C#C[C@]1(OC(C)=O)CC[C@H]2[C@@H]3CCC4=C[C@@H](OC(C)=O)CC[C@@H]4[C@H]3CC[C@@]21C [Ethynodiol diacetate]
- Norethindrone Equivalent* Dose (progestin Dose 1.00 mg): 1.00 mg

SMILES: C#C[C@]1(OC(C)=O)CC[C@H]2[C@@H]3CCC4=CC(=O)CC[C@@H]4[C@H]3CC[C@@]21C [Norethindrone acetate]
- Dose roughly equivalent to 0.050 mg of levonorgestrel: about 0.175 mg
- Norethindrone Equivalent* Dose (progestin Dose 0.40 mg): 0.40 mg
- Norethindrone Equivalent* Dose (progestin Dose 0.50 mg): 0.50 mg
- Norethindrone Equivalent* Dose (progestin Dose 0.60 mg): 0.60 mg
- Norethindrone Equivalent* Dose (progestin Dose 1.00 mg): 1.00 mg
- Norethindrone Equivalent* Dose (progestin Dose 1.50 mg): 1.50 mg
- Norethindrone Equivalent* Dose (progestin Dose 2.50 mg): 2.50 mg

SMILES: C#CC1(O)CC[C@H]2[C@@H]3CCC4=CC(=O)CC[C@@H]4[C@H]3CC[C@@]21CC (mixture of isomers) [dl-Norgestrel]
- Dose roughly equivalent to 0.050 mg of levonorgestrel: about 0.100 mg
- Norethindrone Equivalent* Dose (progestin Dose 0.30 mg): 0.45 mg
- Norethindrone Equivalent* Dose (progestin Dose 0.50 mg): 0.75 mg

SMILES: C#C[C@]1(O)C=C[C@H]2[C@@H]3CCC4=CC(=O)CC[C@@H]4[C@H]3CC[C@@]21CC [gestodene]
- Dose roughly equivalent to 0.050 mg of levonorgestrel: about 0.035 mg

SMILES: C#C[C@]1(O)CC[C@H]2[C@@H]3CCC4=C(CCC(=O)C4)[C@H]3CC[C@@]21C [Norethynodrel]
- Norethindrone Equivalent* Dose (progestin Dose 2.50 mg): 2.50 mg
- Norethindrone Equivalent* Dose (progestin Dose 5.00 mg): 5.00 mg
- Norethindrone Equivalent* Dose (progestin Dose 9.85 mg): 9.85 mg
